Laboratory results from article PMC2941879 (Bioorganic & medicinal chemistry, 2010).
pKi: −log10 of the molar value. Counter-ions that a name gives are not always drawn.

Columns and labels:
α2C receptors = conditions: read-out: Affinity at α2C receptors; cited from earlier work
cloned hD1 receptors = cloned hD1 receptors (Homo sapiens, UniProt P21728); test: Cyclic AMP accumulation assay; format: cell-based
Sequence of cloned hD1 receptors (P21728 whole entry): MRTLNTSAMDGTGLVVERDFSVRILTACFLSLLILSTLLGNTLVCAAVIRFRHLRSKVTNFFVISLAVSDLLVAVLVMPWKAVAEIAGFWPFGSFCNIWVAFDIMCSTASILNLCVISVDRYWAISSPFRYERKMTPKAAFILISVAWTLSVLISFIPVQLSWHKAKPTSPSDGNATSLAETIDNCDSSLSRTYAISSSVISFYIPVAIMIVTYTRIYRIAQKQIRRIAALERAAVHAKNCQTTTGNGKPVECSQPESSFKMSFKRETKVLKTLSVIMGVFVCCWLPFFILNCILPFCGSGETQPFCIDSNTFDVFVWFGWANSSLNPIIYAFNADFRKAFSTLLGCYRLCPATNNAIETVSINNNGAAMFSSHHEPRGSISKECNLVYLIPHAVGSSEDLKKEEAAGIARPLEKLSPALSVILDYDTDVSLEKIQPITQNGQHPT

Structure (SMILES) | pKi (α2C receptors) | Agonist character at D1 receptors (cloned hD1 receptors)
Oc1cc2c(cc1O)C1c3ccccc3CNC1CO2 (centres unmarked) [DOX, doxanthrine] | 8.70 | –
Oc1ccc2c(c1O)C[C@@H](c1ccccc1)[C@@H]1CCNC[C@@H]21 [compound 3, Trans-5-Phenyl-1,2,3,4,4a,5,6,10b-octahydrobenzo[h]isoquinoline-7,8-diol Hydrobromide] | – | full agonist
